In patent US20080318892A1, “METHODS AND FORMULATIONS FOR PROTECTING CELLS, AND FOR TREATING DISEASES AND CONDITIONS BY OPTIMIZING THE INTRACELLULAR CONCENTRATION OF NAD” (priority 2007, published 2008):

Experiments:
[1] = system: HITB5 SMC's; assay: Apoptosis by TUNEL; format: cell-based, human; conditions: PBEF-overexpressing HITB5 SMCs; p<0.01
Protocol: (§1) Cell Proliferation, DNA Synthesis, and Apoptosis were also evaluated. To assess SMC proliferation, cells were plated at a density of 3000 cells per cm^2 and cultured in M199 containing 5% FBS. Triplicate wells were harvested at the designated times and counted using a hemacytometer. To quantify DNA synthesis, cells in log-phase growth were incubated for 12 hours with [^3H]thymidine (10 μCi/mL) and TCA-precipitable counts determined as described (5). Thymidine incorporation was expressed relative to DNA content, quantified by spectrofluorimetry of an aliquot of cell lysate incubated with 500 μg/ml Hoechst 33258. Apoptosis was assessed in SMCs seeded on glass coverslips by in situ end-labeling of DNA fragments using terminal deoxynucleotide transferase and fluorescein 12-dUTP (Promega) (5). Cells were fixed with 4% paraformaldehyde and counterstained with Hoechst 33258.

[2] = system: HDAC; assay: Histone deacetylase (HDAC) assay in SMC lysates with [3H]-acetylated histone H4 peptide; format: biochemical, human; conditions: HITC6-PBEF SMC lysates, vehicle
Protocol: HITC6 SMC's were stably transduced with pQXCIP-PURO or pQXCIP-PBEF-PURO and HDAC activity determined in cell lysates (25 μg of protein), using [^3H]histone H4 peptide as the substrate. The reactions were quenched by acid hydrolysis and catalytically released [^3H]-acetate was extracted in ethyl acetate.
Histone Deacetylase (HDAC) Assays were employed. Histone H4 peptide (Upstate) was labeled with [^3H]-acetyl Coenzyme A (ICN) using PCAF histone acetylase. Cell lysates were harvested using Passive Lysis Buffer (Promega) and 25 μg of protein was incubated at 37° C. for 6 hours with 50,000 cpm of [^3H]-acetyl histone and 1 mM PMSF in HDAC Assay Buffer (Upstate). Released [^3H]-acetate was extracted with ethyl acetate (31) and counted on a Beckman LS3801 scintillation counter.

[3] = system: fibroblasts derived from a subject with HGPS; assay: Replicative lifespan of HGPS fibroblasts; format: cell-based, human; conditions: HGPS fibroblasts transduced with Nampt cDNA
Protocol: Cell Culture. Experiments were performed using primary human vascular SMCs derived by outgrowth from fragments of internal thoracic artery and the HITC6 SMC clonal line, also originally generated from the human internal thoracic artery (Li, 2001). Derman fibroblasts from an individual with Hutchinson-Gilford Progeria Syndrome (HGPS) were obtained from Coreill Cell Repository.
(§2) To quantify replication, cells were plated at 4500 cells/cm^2 and growth medium with 10% FBS was changed every two days until cells reached 90-95% confluence. Harvested cells were counted from triplicate plates and the number of population doublings was calculated based on: [log10(number of cells harvested)−log10(number of cells seeded)]/[…] (Fukuhara, 2005). Population growth curves were compared using both nonlinear regression and two-way analysis of variance.

[4] = system: HITC6 SMCs; assay: Replicative lifespan (cumulative population doublings) of HITC6 SMCs; format: cell-based, human
Protocol: as §2
Cell Culture. Experiments were performed using primary human SMCs and the HITC6 clonal SMC line, both derived from segments of human internal thoracic artery (Li et al., 1999; Li et al., 2001). SMCs were maintained at 37° C. with 5% CO2 and cultured in Medium 199 (Invitrogen, Carlsbad, Calif., USA) supplemented with 25 mM HEPES, 10% FBS, 1% penicillin/streptomycin, and 1% L-glutamine. Phoenix cells (distributed by ATCC, Manassas, Va., USA) were maintained at 37° C. with 5% CO2 and cultured in Dulbecco's modified Eagle's medium (Invitrogen, Carlsbad, Calif., USA). To quantify replication, cells were seeded at a density of 4500 cells/cm2 and population doublings were calculated using the following formula: […].

[5] = system: HITB5 SMC's; assay: DNA synthesis ([3H]thymidine incorporation); format: cell-based, human; conditions: PBEF-overexpressing HITB5 SMCs
Protocol: as §1

[6] = system: SIRT1; assay: Western blot of SIRT1 protein expression in SMCs; format: cell-based, human; conditions: PBEF overexpression; p=0.02
Protocol: Western Blot and Immunoprecipitation Analysis. Protein expression was assessed by Western blot analysis with chemiluminescence detection, as previously described (Rocnik, 2002). PBEF was detected using a rabbit polyclonal anti-human PBEF/Pre-B-cell colony enhancing factor antibody (Bethyl Laboratories, Montgomery, Tex.). SIRT1 was detected using a rabbit polyclonal anti-SIRT1 antibody (Abcam, Cambridge, Mass.) and p53 and α-tubulin were detected with monoclonal antibodies (CO-1, Santa Cruz, Calif. and Clone B-5-1-1, Sigma, Oakville, ON, respectively). Cytoplasmic p53 was similarly assessed following cell fractionation (NucBuster, Novagen Minneapolis, Minn.). Identification of p53 that underwent NAD^+-dependent removal of an acetyl group on residue K382 was determined by pretreating SMCs for 2 h with 5 μM trichostatin A (TSA), immunoprecipitating p53 from the cell lysate with a goat polyclonal antibody (R&D Systems, Minneapolis, Minn.), and immunoblotting using a rabbit polyclonal anti-acetylated p53 (K382) antibody (American Proteomics, Carlsbad, Calif.) and HRP-labelled donkey anti-rabbit IgG antibody (Amersham, Piscataway, N.J.).
Western Blot Analysis. Protein expression was assessed by Western blot analysis of confluent cultured SMCs, as previously described (Rocnik et al., 2002). […] Signal was detected by chemiluminescence (Pierce, Rockford, Ill., USA).

With “PBEF: 52-55 kD protein, rate-limiting enzyme for NAD+ biosynthesis from nicotinamide; tested by retroviral cDNA overexpression in cells” the “proportion of apoptotic SMC's relative to HITB5-EGFP SMC's” value [1] was “approximately half”, the “total HDAC activity vs HITC6-Vector SMC's” value [2] was “significantly greater” and the cell lifespan extension [3] was “also seen”. The additional population doublings ([4]; HITC6 SMCs overexpressing Nampt) was 6.3±0.3 population doublings, the extension of lifespan ([4]; HITC6 SMCs overexpressing Nampt, p=0.003) was 71±7% and the “additional population doublings conferred by Nampt” value ([4]; double-transduction experiment, Nampt without SIRT1 H363Y) was 5.4±0.5 population doublings. The “thymidine incorporation vs control cells” value [5] was “no detectable difference” and the “abundance of SIRT1 protein” value [6] was 1.3±0.3 fold.
